From patent US7115718B2, “Haptens, immunogens, antibodies and conjugates to 2-oxo-3-hydroxy-LSD” (Randox :abpratproes :o, oted, priority 2001, dated 2006)

How the values were obtained:
[1] = tested on: antiserum raised to immunogen A (hapten A-BSA); assay: Competitive ELISA microtiter plate assay for 2-oxo-3-hydroxy-LSD, cross-reactivity with LSD and its metabolites; assay type: binding, sheep; conditions: for % CR, percentage cross-reactivity based on specificity to 2-oxo-3-hydroxy LSD: % CR = IC50 2-oxo / IC50 LSD x 100; for % B/B0: B0 = absorbance at 0 ng/ml; for A450: absorbance at 450 nm, conjugate A (hapten A-HRP)
Experimental: An aqueous solution of the immunogen prepared in Example 5 was formulated with Freund's Complete Adjuvant (FCA) to form an emulsion consisting of 4 mg/ml inmmunogen in 50% (v/v) FCA. Three sheep were immunized with this emulsion (1° immunisation), 0.25 ml being subcutaneously -injected at each of four sites in the flank of each animal. The next immunisation (Boost 1) contained 2 mg/ml immunogen and subsequent immunizations (boosts 2 to 25) contained 1 mg/ml. All boosts were emulsified in 50% (v/v) Freund's Incomplete Adjuvant (FIA) and administered in the same manner as the 1° immunisation at monthly intervals for 1 year. Blood sampling took place 7 to 14 days after each boost. Each sample was processed to produce antiserum, which was further purified by caprylic acid and ammonium sulfate precipitation to yield an immunoglobulin G (IgG) fraction. The IgG fraction was evaluated by competitive ELISA microtitre plate assay, as described in Example 14 below.
The wells of an enhanced binding 96 well polystyrene ricrotiter plate were coated with the IgG fraction of the antiserum raised to immunogen A (Example 5) of the present invention, diluted in 10 mM Tris, pH8.5 (125 μl/well). The appropriate antibody coating dilution was determined using standard ELISA chequerboard techniques. The plate was incubated for 2 hours at 37° C., washed 4 times with Tris buffered saline containing Tween 20 (TBST) and tapped dry. Standard solutions of 2-oxo-3-hydroxy-LSD were prepared in TBST at 0, 10, 50, 100, 250, 500, 1000 and 2000 ng/ml and 50 μl of each was added to the appropriate wells (FIG. 4). The conjugate (detection reagent) of the present invention was diluted in Tris buffer (pH7.2) containing EDTA, D-mannitol, sucrose, thimerosal and BSA, the appropriate dilution being determined by standard ELISA chequerboard techniques, and 75 μl was added to the appropriate wells (FIG. 4). The plate was incubated at 37° C. for 2 hours. Excess unbound conjugate was removed by washing 6 times over a 10 minute period with TBST.
125 μl of tetramethylbenzidine (TMB) substrate solution was added to each well of the plate, which was then incubated for 15 to 20 minutes in the dark at room temperature. The reaction was terminated by addition of 125 μl 0.2M H2SO4 to each well. The absorbance was then measured at 450 nm using a microtiter plate reader.
Standard solutions of LSD and its metabolites were prepared in TBST at 0, 10.0, 50.0, 100.0, 250.0, 500.0, 1000 and 2000 ng/ml. Employing each series of standards in the present competitive ELISA, calibration curves were generated and these were used to determine the cross-reactivity of the immunoassays with LSD and its metabolites, cross-reactivity being calculated according to the following formula: % CR=IC502-oxo/IC50LSD×100 where % CR is the percentage cross-reactivity, IC502-oxo is the concentration of 2-oxo-3-hydroxy-LSD that causes 50% displacement of signal and IC50LSD is the concentration of LSD or LSD metabolite that causes 50% displacement of signal.

[2] = tested on: antibodies obtained in EP 1 148 339 A2; conditions: when compared to 2-oxo-3-hydroxy-LSD; cited from earlier work
[3] = tested on: antibodies generated to immunogen 4; conditions: cited from earlier work
[4] = tested on: antibodies generated to immunogen 8; conditions: cited from earlier work
[5] = tested on: antibodies of U.S. Pat. No. 6,207,396 B1; conditions: antibodies specific to d-LSD; cited from earlier work
[6] = in vivo; cited from earlier work
[7] = human urine; cited from earlier work
[8] = in vivo; cited from earlier work; remark: listed apart in the source

SMILES	specificity / cross-reactivity of the assay, in words [1]	% CR, percentage cross-reactivity based on specificity to 2-oxo-3-hydroxy LSD [1]	% B/B0 ([1]; standard 10 ng/ml)	A450 ([1]; standard 10 ng/ml)	% B/B0 ([1]; standard 50 ng/ml)	A450 ([1]; standard 50 ng/ml)	% B/B0 ([1]; standard 100 ng/ml)	A450 ([1]; standard 100 ng/ml)	% B/B0 ([1]; standard 250 ng/ml)	A450 ([1]; standard 250 ng/ml)	% B/B0 ([1]; standard 500 ng/ml)	A450 ([1]; standard 500 ng/ml)	% B/B0 ([1]; standard 1000 ng/ml)	A450 ([1]; standard 1000 ng/ml)	% B/B0 ([1]; standard 2000 ng/ml)	A450 ([1]; standard 2000 ng/ml)	cross-reactivity [2]	cross-reactivity [3]	cross-reactivity [4]	cross-reactivity [5]	other results
CCN(CC)C(=O)[C@@H]1C=C2c3cccc4[nH]cc(c34)C[C@H]2NC1 [Nor LSD, nor-LSD]	very low levels of cross-reactivity	<5%	99.0%	1.772	98.7%	1.767	98.5%	1.763	97.1%	1.738	94.2%	1.686	91.5%	1.638	86.7%	1.552	1.8–4.6%	20%	40%		
CCN(CC)C(=O)[C@H]1C=C2c3cccc4[nH]cc(c34)C[C@H]2N(C)C1 [d-iso-LSD]																				0.04%	hallucinogenic activity, in words [6]: inactive
CCN(CC)C(=O)[C@@H]1C=C2c3cccc4c3C(O)(C[C@H]2N(C)C1)C(=O)N4 (stereo partly drawn) [2-Oxo-3-Hydroxy-LSD, 2-oxo-3-hydroxy-LSD]	highly specific	100%	78.47%	1.396	59.36%	1.056	50.08%	0.891	37.10%	0.660	28.89%	0.514	21.98%	0.391	17.88%	0.318		50%	< 20%	1.82%	average concentration relative to that of LSD [7]: 20 times
CCN(CC)C(=O)[C@@H]1C=C2c3cccc4[nH]cc(c34)C[C@H]2N(C)C1 [LSD, Lysergic acid diethylamide]	very low levels of cross-reactivity	<5%	99.28%	1.792	98.45%	1.777	98.34%	1.775	96.40%	1.740	91.58%	1.653	87.09%	1.572	80.50%	1.453	74.9–84.4%	100%	100%		potency as hallucinogen relative to mescaline [6]: 4500–9275 times; potency as hallucinogen relative to psilocybin [6]: 10–150 times; excreted unchanged in urine [8]: less than 1%
